Reference: patent US20240009160A1, “USE OF (S)-3-AMINO-4-(DIFLUOROMETHYLENYL)CYCLOPENT-1-ENE-1-CARBOXYLIC ACID IN THE TREATMENT OF CANCER” (Ovid Therapeutics, Inc., priority 2022, published 2024)
Read-outs that look alike come from different tables or passages of the source.

Assays:
[1] = 45-day oral tolerability and electroretinogram study, head-to-head with vigabatrin; format: in vivo, mice
Procedure: (§1) In adult mice, an acute no-observed adverse-effect level (NOAEL) of 6 mg/kg by mouth was determined by evaluating behavioral neurotoxicity in naive animals. […] Based on these findings, it is clear that the inhibition of GABA-AT by (S)-3-amino-4-(difluoromethylenyl)cyclopent-1-ene-1-carboxylic acid is not necessarily associated with vigabatrin-like retinal toxicity.

[2] = Non-GLP safety assessment of retinal function and structure; format: in vivo, rats
Procedure: (§2) A non-GLP safety assessment for changes in retinal function and structure were evaluated in rats. […] In addition, toxicity of (S)-3-amino-4-(difluoromethylenyl)cyclopent-1-ene-1-carboxylic acid was assessed in non-GLP single-dose and repeat dose toxicity studies in rats and dogs. […] (S)-3-amino-4-(difluoromethylenyl)cyclopent-1-ene-1-carboxylic acid was not genotoxic in the Ames assay. The Ames assay is a well-known method that uses several strains of the bacterium Salmonella typhimurium to test whether a given chemical can cause mutations in the DNA of the test organism. No CNS or cardiovascular safety liabilities were identified in an Irwin study in mice. The Irwin observation test is commonly used to evaluate the effects of a new substance on behavior and physiological function. Roux et al., Curr Protoc Pharmacol. 2005 Jan. 1; Chapter 10:Unit 10.

[3] = Non-GLP 10-day repeat dose toxicity study in rats; format: in vivo; conditions: for human dose converted from tolerated rat dose: Reagan-Shaw conversion
Procedure: as §2

[4] = Non-GLP 10-day repeat dose toxicity study in dogs; format: in vivo
Procedure: as §2

Salmonella typhimurium = format: cell-based
Procedure: as §2

[5] = Genetic toxicity in vitro
hERG channel = hERG channel (Homo sapiens, UniProt Q12809); test: hERG channel activity in vitro
[6] = Acute behavioral neurotoxicity in naive adult mice; conditions: in vivo, oral
Procedure: as §1

[7] = Pharmacokinetics after oral administration in rat; conditions: in vivo
[8] = Pharmacokinetics after oral administration in dog; format: in vivo
[9] = Clearance in rat hepatocytes; format: in vitro ADME; conditions: read-out: intrinsic clearance (CIint)
[10] = Clearance in human hepatocytes; format: in vitro ADME; conditions: read-out: intrinsic clearance (CIint)
[11] = Clearance in dog hepatocytes; format: in vitro ADME; conditions: read-out: intrinsic clearance (CIint)
[12] = Plasma protein binding, rat; format: in vitro ADME; conditions: 37° C., one range given for rat, dog and human, read-out: bound to plasma proteins
Procedure: (§3) (S)-3-amino-4-(difluoromethylenyl)cyclopent-1-ene-1-carboxylic acid was minimally bound (4 to 20%) to proteins in rat, dog, and human plasma at 37° C.

[13] = Plasma protein binding, dog; format: in vitro ADME; conditions: 37° C., one range given for rat, dog and human, read-out: bound to plasma proteins
Procedure: as §3

[14] = Plasma protein binding, human; format: in vitro ADME; conditions: 37° C., one range given for rat, dog and human, read-out: bound to plasma proteins
Procedure: as §3

hERG channel, sequence (Q12809 whole entry): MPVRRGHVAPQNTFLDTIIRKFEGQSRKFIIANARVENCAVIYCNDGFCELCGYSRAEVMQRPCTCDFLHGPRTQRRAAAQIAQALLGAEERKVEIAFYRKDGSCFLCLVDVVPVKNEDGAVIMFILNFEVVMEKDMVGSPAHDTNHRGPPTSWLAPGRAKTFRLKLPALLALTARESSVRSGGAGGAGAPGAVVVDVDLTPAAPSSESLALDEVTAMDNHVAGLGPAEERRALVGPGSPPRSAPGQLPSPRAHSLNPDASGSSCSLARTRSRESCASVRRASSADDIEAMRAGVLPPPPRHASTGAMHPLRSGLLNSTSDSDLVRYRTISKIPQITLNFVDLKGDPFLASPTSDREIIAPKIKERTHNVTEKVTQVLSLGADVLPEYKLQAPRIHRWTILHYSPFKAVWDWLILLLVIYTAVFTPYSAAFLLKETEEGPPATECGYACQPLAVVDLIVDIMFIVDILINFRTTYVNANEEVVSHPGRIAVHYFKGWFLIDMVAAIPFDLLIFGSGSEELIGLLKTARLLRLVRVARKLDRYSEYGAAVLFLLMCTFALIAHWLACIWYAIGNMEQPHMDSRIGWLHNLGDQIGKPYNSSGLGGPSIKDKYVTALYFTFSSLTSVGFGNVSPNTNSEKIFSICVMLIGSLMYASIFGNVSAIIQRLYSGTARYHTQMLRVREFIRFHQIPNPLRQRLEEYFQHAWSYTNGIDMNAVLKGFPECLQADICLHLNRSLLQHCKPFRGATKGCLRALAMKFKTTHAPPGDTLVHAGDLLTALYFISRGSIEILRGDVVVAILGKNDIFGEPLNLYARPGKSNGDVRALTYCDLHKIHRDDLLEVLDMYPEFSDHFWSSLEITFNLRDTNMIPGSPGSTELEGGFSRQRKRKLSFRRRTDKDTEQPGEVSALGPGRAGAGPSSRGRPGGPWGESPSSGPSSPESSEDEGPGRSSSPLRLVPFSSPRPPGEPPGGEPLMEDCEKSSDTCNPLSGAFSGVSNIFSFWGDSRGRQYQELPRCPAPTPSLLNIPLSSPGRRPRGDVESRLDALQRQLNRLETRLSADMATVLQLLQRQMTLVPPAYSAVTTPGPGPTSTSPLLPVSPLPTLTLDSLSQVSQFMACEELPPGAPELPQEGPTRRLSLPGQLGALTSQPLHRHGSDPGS

For `C=CC(N)CCC(=O)O` (stereo not shown) [vigabatrin, reference compound], the “retinal B-wave amplitudes” value ([1]; mouse, in vivo) was “reductions in retinal B-wave amplitudes” and the weight ([1]; mouse, in vivo) was “marked reduction in weight”.
For `N[C@H]1C=C(C(=O)O)CC1=C(F)F` [(S)-3-amino-4-(difluoromethylenyl)cyclopent-1-ene-1-carboxylic acid], the “human dose converted from tolerated rat dose” value ([2]; from 1 mg/kg/day rat (so in the source), Reagan-Shaw conversion) was 0.48 mg/kg/day, the “well tolerated dose for all assessed ocular endpoints” value ([2]; rats, 45 days, fundoscopy, ERG, OCT and histological assessments, initial results) was “up to 3 mg/kg/day” and the “well tolerated dose, female rats” value ([3]; 10-day dosing, female rats) was ≤ 10 mg/kg. For the same compound, the “well tolerated dose, male rats” value ([3]; 10-day dosing, male rats) was “up to 15 mg/kg”, the “human dose converted from tolerated rat dose” value ([3]; from 10 mg/kg rat) was 1.62 mg/kg and the “human dose converted from tolerated rat dose” value ([3]; from 15 mg/kg rat) was 2.4 mg/kg. For the same compound, the “well tolerated dose, dogs” value ([4]; 10-day dosing, male and female dogs) was “up to 1.0 mg/kg”, the “human dose converted from tolerated dog dose” value ([4]; from 1 mg/kg dog, Reagan-Shaw conversion) was 1.54 mg/kg and the “genotoxicity in the Ames assay” value (Salmonella typhimurium) was “not genotoxic”. The genetic toxicity [5] was “No evidence of genetic toxicity”, the hERG channel activity (hERG channel) was “No evidence of genetic toxicity or hERG channel activity” and the NOAEL ([6]; from 6 mg/kg mouse, Reagan-Shaw conversion, read-out: human dose converted from mouse NOAEL) was 0.49 mg/kg. For the same compound, the NOAEL ([6]; mouse, adult mice, by mouth, behavioral neurotoxicity, read-out: acute no-observed adverse-effect level (NOAEL)) was 6 mg/kg, the tolerability ([1]; 1 mg/kg/d by mouth for 45 days) was “well tolerated” and the “human dose converted from tolerated mouse dose” value ([1]; from 1 mg/kg/day mouse, Reagan-Shaw conversion) was 0.08 mg/kg/day. The half-life ([7]; read-out: elimination half-life (t½)) was 75 to 90 min, the Tmax ([7]; read-out: time of maximum concentration (Tmax)) was 15 to 30 min and the “exposure (AUC basis) in dogs compared with rats” value ([8]; equivalent oral doses) was “higher exposure”. For the same compound, the half-life ([8]; in vivo, dog, oral administration, read-out: elimination half-life (t½)) was 75 to 90 min, the Tmax ([8]; in vivo, dog, oral administration, read-out: time of maximum concentration (Tmax)) was 15 to 30 min and the CLint scaled [9] was 24.3 mL/min/kg. It also gave a CLint scaled [10] of 13.1 mL/min/kg, a CLint scaled [11] of 8.97 mL/min/kg and a fraction unbound [12] of 0.8 to 0.96. For the same compound, the fraction unbound [13] was 0.8 to 0.96 and the fraction unbound [14] was 0.8 to 0.96.
